Entries after “also recorded” stand apart in the source; their conditions may differ. Like-named read-outs stand apart in the source and are kept apart here.

What is called IC50 is the concentration needed to halve the response being measured.

The target in assay [1] is PARP-1 (Homo sapiens, UniProt P09874). Kind of assay: PARP-1 enzymatic activity assay (chemical quantification of NAD+).
Description: This assay is based on the chemical quantification of NAD^+, i.e. the amount of NAD^+ consumed when the active PARP-1 C-terminal catalytic domain sequentially transfers ADP-ribose subunits from nicotinamide adenine dinucleotide (NAD^+) to protein acceptors.^7
High-specific-activity PARP-1 and activated DNA were purchased from Trevigen (Gaithersburg, Md.). All other reagents required for this assay including NAD^+ were purchased from Sigma-Aldrich (St. Louis, Mo.). Known PARP-1 inhibitor PJ-34, used as a control in these experiments, was synthesized in-house. […] A solution of 50 μg/mL of activated DNA was made in PARP assay buffer and 10 μL was added to each well. Stock solutions of test compounds were first prepared in DMSO, diluted to varying concentrations in PARP assay buffer, and 10 μL was added to each well. To initiate the reaction, 10 μL of 10 μg/mL PARP-1 enzyme in PARP assay buffer was added to each well. The total volume was 50 μL, bringing the final concentrations to 2 μg/mL PARP-1 enzyme, 10 μg mL activated DNA, and 100 nM NAD^+ per well. The plate was then incubated at room temperature for 20 min. The amount of NAD^+ present was then determined by first adding 20 μL 2 M KOH, followed by 20 μL of 20% acetophenone (in ethanol) to each well.
Assay [2] has as its system MDA-MB-231 tumors. Kind of assay: microPET imaging with [18F]12, MDA-MB-231 tumors. To be noted: for effect of drug treatment on tracer uptake outside the tumor (microPET images): MDA-MB-231 tumor-bearing mice; for effect of drug treatment on tracer uptake outside the tumor (microPET images) / effect of drug treatment on tumor uptake of tracer (microPET images): 50 mg/kg IP 30 minutes before imaging; for effect of drug treatment on tumor uptake of tracer (microPET images) / tracer uptake, percent of injected dose per ml, after drug treatment vs baseline: MDA-MB-231 tumors; for tracer uptake, percent of injected dose per ml, after drug treatment vs baseline: 30 minutes after IP injection, paired t test. Type of assay: in vivo, mice. Here is the method: (§1) This example illustrates the visualization of tumor tissue in microPET in mice. MDA-MB-436 human breast cancer xenograft tumors in immune-deficient mice were visualized by PET using [^18F]12.
(§2) Tumor-bearing mice were placed in an induction chamber containing ˜2% isoflurane/oxygen and then secured to a custom double bed for placement of tail vein catheters; anesthesia was maintained via nose-cone at ˜1% isoflurane/oxygen for the dynamic imaging procedure. The mice were injected with 150-200 μCi of [^18F]12 and scanned for 0-60 min using Focus 220 and Inveon PET/CT scanners. The standard uptake values (SUVs) were generated from manually drawn regions of interests for tumors and surrounding ‘background’ tissue. Visualization of specific uptake was determined by comparison of baseline scans with images acquired by tracer injection 20 minutes after pre-treatment with the blocking agents olaparib (50 mg/kg, IP) or 12 (1 mg/kg, IP).
(§3) This example illustrates uptake of Compound 12 ([^18F]WC-4-138) in mice. Mature female athymic nude mice (Charles River Laboratories) were implanted with 10^6 SCC1 cells or 10^7 MDA-MB-231 cells into the mammary fat pads. Mice bearing SCC1 tumors were imaged at 5 weeks and mice bearing MDA-MB-231 cells were imaged at 2.5 weeks after implant. Mice were anesthetized with 2% isoflurane/oxygen and maintained at 1% isoflurane/oxygen via nose cone throughout the imaging procedure. Whole animal microCT images were acquired on an Inveon PET/CT scanner. The mice were injected via tail vein with 11.36±0.5 MBq (307±13 μCi) of [^18F]WC(4)-138 and underwent a 60 minute dynamic scan using Focus 220 or Inveon PET/CT scanners. The microPET and microCT images were coregistered using Integrated Research Workflow software (Siemens). Regions of interest were drawn over tumors to determine time activity curves. For drug treatment studies, animals reached intraperitoneal injections of 50 mg/kg olaparib or iniparib 30 minutes before imaging. Mice were imaged at baseline, or 30 minutes after IP injection of olaparib or iniparib. Arrows indicate location of tumors as identified on CT.
(§4) In FIG. 8, mice were imaged at baseline, or 30 minutes after IP injection of olaparib or iniparib. (A) The percent of injected dose per ml was calculated for each MDA/MB-231 tumor at baseline or after drug treatment. […] Tracer uptake was unchanged in iniparib-treated mice (p=0.1098 as determined by a paired t test, n=6 tumors).

For assay [3], the system named is SCC1 tumors. Kind of assay: microPET imaging with [18F]WC-4-138, SCC1 tumors. It is filed as in vivo, mice. To be noted: 30 minutes after IP injection, paired t test.
Description: as §3, with “Mice were imaged at baseline, or 30 minutes after IP injection of olaparib or iniparib. Arrows indicate location of tumors as identified on CT.” left out
as §4

The subject of assay [4] is head and neck cell lines SCC1 and SCC25. Kind of assay: [18F]WC-4-138 uptake in cell culture, head and neck lines. Type of assay: cell-based. Conditions: 10 μM drug prior to incubation with tracer. The method, then: In these experiments, the head and neck squamous cell carcinoma lines SCC1, SCC15, and SCC25 (ATCC) were propagated in Dulbecco's Modified Eagle's Medium (DMEM, Gibco) supplemented with 10% Fetal Bovine Serum (FBS, Gibco), Penicillin-Streptomycin (P/S, Gibco), and 100 ng/ml hydrocortisone (Sigma-Aldrich). The small cell lung cancer lines NCI-h69 and NCI-h82 (ATCC) were propagated m RPMI Medium (Gibco) supplemented with 10% FBS and 1% P/S. The human breast cancer cell line MDA-MB-231 (ATCC) was propagated in Eagle's Minimum Essential Medium (Gibco) supplemented with 5% FBS, 2% Vitamins for MEM (Gibco), 1% 200 mM L-glutamine (Gibco), 1% 10 mM Non-Essential Amino Acid (NEAA, Gibco).
For each experimental replicate, approximately 1 μCi of [^18F]WC-4-138 was diluted in 1 ml of cell culture medium and added to 10^6 cells. After 5, 30, or 60 minutes, the medium was collected and cells were washed twice in 0.7 ml Phosphate Buffered Saline (PBS, Gibco). Adherent cells were collected by scraping the cell culture dish and transferring to a microfuge tube. Radioactivity was measured in the collected medium, PBS, or cell pellets. Protein from the cell pellet was quantified using a […]. All data were decay-corrected and normalized to total protein quantity in the cell pellet. For drug treatment studies, cells were incubated with 10 μM Olaparib or Iniparib twenty-hours prior to incubation with [^18F]WC-4-138.
The head and neck cell lines SCC1 and SCC25 constitutively take up small amounts of tracer, registering as 0.001-0.002 μCi/μg in the cell pellet (FIG. 5A). […] Radioactivity was measured in head and neck squamous cell cancer (HNSCC) lines (SCC1 and SCC25) or small cell lung cancer (SCLC) lines (NCI-h69 and NCI-h82) after incubation with [^18F]WC-4-138 for 5, 30, or 60 minutes (n=3 at each time point). […] PARP activity was measured in HNSCC or lung SCLC cells. (FIG. 5C-D) [^18F]WC-4-138 uptake was measured in HNSCC cell lines treated with olaparib or iniparib. […]

Assay [5] has as its system MDA-MB-436 tumors. As to the kind of experiment: microPET imaging with [18F]12, MDA-MB-436 xenograft tumors. Type of assay: in vivo, mice. To be noted: olaparib 50 mg/kg i.p. or 12 1 mg/kg i.p., 20 min prior to tracer. The method, then: as §1
MDA-MB-436 and MDA-MB-231 human breast cancer cells were maintained in cell culture under standard conditions with 5% CO2 atmosphere using Eagle's minimum essential medium (with Earle's balanced salt solution and 2 mM L-glutamine) supplemented with 2 mM E-glutamine, 1 mM sodium pyruvate, 0.1 mM non-essential amino acids 2% vitamins for MEM, and 5% fetal bovine serum. Cells in exponential growth were trypsinized and harvested for tumor implantation. After counting, cells were re-suspended in ice-cold 1:1 Matrigel and PBS to give the desired concentration and held on ice.
Mature female athymic nu/nu mice from Charles River Laboratories are allowed to acclimate in an AALAC accredited housing facility for at least 1 week prior to tumor implantation for these serial imaging studies. Female nu/nu mice were implanted in the mammary fat pads (near the auxiliary lymph nodes) with ˜8×10^6 MDA-MB-436 breast cancer cells in ˜100 μL of 1:1 Matrigel:PBS. Imaging studies were conducted 2-3 weeks post implantation.
as §2

Where [6] appears, read: read-out: IC50 (nM), inhibition of PARP-1, mean ± SD, at least three independent experiments.

Chain of PARP-1 (P09874 whole entry): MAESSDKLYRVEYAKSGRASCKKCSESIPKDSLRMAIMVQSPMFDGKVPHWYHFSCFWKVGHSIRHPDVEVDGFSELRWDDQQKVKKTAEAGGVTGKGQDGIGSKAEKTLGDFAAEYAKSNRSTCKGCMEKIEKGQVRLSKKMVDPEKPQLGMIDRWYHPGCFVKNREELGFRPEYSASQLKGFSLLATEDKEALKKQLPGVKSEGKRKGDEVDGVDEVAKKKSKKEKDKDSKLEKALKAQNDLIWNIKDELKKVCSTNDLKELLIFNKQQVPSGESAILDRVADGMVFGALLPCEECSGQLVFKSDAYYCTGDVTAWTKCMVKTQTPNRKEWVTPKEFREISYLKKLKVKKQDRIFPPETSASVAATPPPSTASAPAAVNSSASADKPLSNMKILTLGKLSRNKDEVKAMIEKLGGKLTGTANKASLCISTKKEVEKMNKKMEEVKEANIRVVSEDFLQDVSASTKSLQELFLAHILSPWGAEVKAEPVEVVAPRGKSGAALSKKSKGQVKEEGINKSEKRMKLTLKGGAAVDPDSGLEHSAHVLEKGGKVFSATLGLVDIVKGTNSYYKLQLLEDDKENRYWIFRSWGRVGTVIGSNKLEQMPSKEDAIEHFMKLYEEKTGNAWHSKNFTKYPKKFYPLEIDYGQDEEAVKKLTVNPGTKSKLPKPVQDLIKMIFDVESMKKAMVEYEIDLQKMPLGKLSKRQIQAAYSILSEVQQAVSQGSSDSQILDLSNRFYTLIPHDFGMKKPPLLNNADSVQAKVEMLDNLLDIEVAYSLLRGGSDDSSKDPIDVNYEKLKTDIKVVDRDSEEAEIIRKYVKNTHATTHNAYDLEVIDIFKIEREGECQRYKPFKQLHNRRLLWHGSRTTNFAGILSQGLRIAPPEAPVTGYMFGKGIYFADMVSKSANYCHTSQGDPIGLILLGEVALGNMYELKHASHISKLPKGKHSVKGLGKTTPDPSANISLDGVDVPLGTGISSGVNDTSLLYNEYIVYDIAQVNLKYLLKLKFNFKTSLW

In assay [1], `O=C1NCCn2c(-c3ccc(OCCF)cc3)nc3cccc1c32` [Compound 12, 5,6-Dihydro-2-(4-(2-fluoroethoxy)phenyl)-imidazo [4,5,1-jk][1,4]benezodiazepin-7(4H)-one] showed a half-inhibitory concentration (IC50) of 63 nM.
Consider `O=C1NCCn2c(-c3ccc(OCc4cn(CCF)nn4)cc3)nc3cccc1c32` [Compound 15, 5,6-Dihydro-2-(4-((1-(2-fluoroethyl)-1H-1,2,3-triazol-4-yl)methoxy)phenyl)-imidazo[4,5,1-jk][1,4]benzodiazepin-7(4H)-one], for which, in assay [1] (setting [6]), the concentration for half-maximal inhibition (IC50) came out at 22.1 ± 6.3 nM.
Turning to `NC(=O)c1cccc2[nH]c(-c3ccc(OCCF)cc3)nc12` [Compound 8, 2-(4-(2-Fluoroethoxy)phenyl)-1H-benzo[d]imidazole-4-carboxamide], the IC50 in assay [1] (read-out: IC50, inhibition of PARP-1, unit inferred) was 10.8 nM.
On to `O=C(c1cc(Cc2n[nH]c(=O)c3ccccc23)ccc1F)N1CCN(C(=O)C2CC2)CC1` [olaparib], for which, in assay [2], the “effect of drug treatment on tracer uptake outside the tumor (microPET images)” value is reported as “tracer is still present in other areas of the section”; the “effect of drug treatment on tumor uptake of tracer (microPET images)” value was “abolished”; the “tracer uptake, percent of injected dose per ml, after drug treatment vs baseline” value is on record as “significantly reduced”. Moreover, in assay [2] (i.p. 50 mg/kg, 20 min pretreatment), the “effect of pretreatment on [18F]12 uptake in MDA-MB-231 tumor” value was “decreased [^18F]12 uptake”. Besides, the “tracer uptake, percent of injected dose per ml, after drug treatment vs baseline” value in assay [3] was “significantly reduced”. For the same molecule, the “effect of drug on [18F]WC-4-138 uptake in HNSCC cell lines” value in assay [4] was “abolished”. Moreover, in assay [5], the “effect of pretreatment on [18F]12 uptake in MDA-MB-436 tumors” value was “decreased [^18F]12 uptake in the tumors to the background tissue activity levels; also recorded: significantly decreased [^18F]12 uptake; also recorded: blocked”. The “effect of pretreatment on [18F]12 uptake in MDA-MB-436 tumors” value in assay [5] (listed as olaparib/AZD2281) is given as “blocked”.
Regarding `C#CCOc1ccc(-c2nc3cccc4c3n2CCNC4=O)cc1` [Compound 13, 5,6-Dihydro-2-(4-(prop-2-ynyloxy)phenyl)-imidazo[4,5,1-jk][1,4]benzodiazepine-7(4H)-one], in assay [1] (setting [6]), the concentration for half-maximal inhibition (IC50) was 18.7 ± 2.7 nM.
On to `NC(=O)c1ccc(I)c([N+](=O)[O-])c1` [iniparib], for which, in assay [2], the “effect of drug treatment on tracer uptake outside the tumor (microPET images)” value is “abolishes said uptake in other types of cells”; the “effect of drug treatment on tumor uptake of tracer (microPET images)” value is recorded as “does not effect the uptake”; the “tracer uptake, percent of injected dose per ml, after drug treatment vs baseline” value was “unchanged”. For the same molecule, the “tracer uptake, percent of injected dose per ml, after drug treatment vs baseline” value in assay [3] is on record as “unchanged”. Further, the “effect of drug on [18F]WC-4-138 uptake in HNSCC cell lines” value in assay [4] is “not”.
For the molecule `C#CCOc1ccc(-c2nc3c(C(N)=O)cccc3[nH]2)cc1` [Compound 9, 2-(4-(Prop-2-ynloxy)phenyl)-1H-benzo[d]imidazole-4-carboxamide], in assay [1] (setting [6]), the IC50 turned out to be 25.8 ± 3.3 nM.

The values are drawn from US9993570B2, “Radiolabeled tracers for poly (ADP-ribose) polymerase-1 (PARP-1), methods and uses therefor” (Washington University, priority 2014, dated 2018).
